This note sets out measurements from PubChem BioAssay AID504686 (National Center for Advancing Translational Sciences (NCATS), 2011).

This data set deals with Caco-2 monolayer A->B permeability, LC-MS/MS, 90 min. Put plainly: Inhibitors of Human alpha-Glucosidase: Caco-2 Cell Permeability Profiling. The following applies: active compounds read high. An excerpt:
Alpha-glucosidase is responsible for the hydrolysis of terminal, non-reducing 1,4-linked alpha-D-glucose residues, which releases alpha-D-glucose. It is a lysosomal hydrolase that is required for the degradation of a small percentage (1-3%) of cellular glycogen in humans. Deficiency of this enzyme results in glycogen-storage disease type II (GSDII), also referred to as Pompe disease, an autosomal recessive disorder. Structurally normal glycogen is accumulated in the lysosomes and cytoplasm in affected patients, primarily in muscle tissues. Excessive glycogen storage within lysosomes may interrupt normal functioning of other organelles and leads to cellular injury. In turn, this leads to enlargement and dysfunction of the entire organ involved (eg: cardiomyopathy and muscle weakness). This bioassays provides profiling data on Caco-2 cell permeability of leads compounds developed for the alpha-Glucosidase project. This in vitro model is often predictive of in vivo absorption of the compound across the intestinal lining by using a Caco2-cell line and measuring the compound's rate of transport […]. NIH Chemical Genomics Center [NCGC] NIH Molecular Libraries Probe Production Centers Network [MLPCN] […]
1. […] The T0, LY and T90, LY plates are read by FlexStation 3 at excitation of 485 nm and emission of 535 nm to determine LY permeability. […]
In general terms: Caco-2 monolayers are a common model of the intestinal barrier.

Take `CC(=O)c1ccc(N2CCN(S(=O)(=O)c3ccc4c(c3)CC(=O)N4)CC2)cc1`: the Papp A->B was 21.3 10^-6 cm/s.
